From patent US20130156845A1, “LIPID FORMULATED SINGLE STRANDED RNA” (ALNYLAM PHARMACEUTICALS, INC., priority 2010, published 2013)
pEC50, pIC50: −log10 of the molar value. Read-outs that look alike come from different tables or passages of the source. e = 2'-O-(2-methoxyethyl) (MOE); {P} = phosphate; f = 2'-fluoro

Tests used:
[1] = tested on: PTEN; test: PTEN mRNA reduction in HeLa cells, dose response (Example 72); format: cell-based, human; conditions: percent inhibition of PTEN mRNA, 0.167-50 nM
Protocol: In accordance with the present disclosure, oligomeric compounds were synthesized and tested for their ability to reduce PTEN expression over a range of doses. Human HeLa cells were treated with the following oligomeric compounds. A dose comparison was evaluated with dose concentrations of 0.167, 0.5, 1.5, 5, 15 and 50 nM using methods described herein. Expression levels of PTEN were determined using real-time PCR and normalized to RIBOGREEN™ using methods described herein. The percent inhibition of PTEN mRNA was determined and the resulting dose-response curves were used to determine the IC50. The IC50s are listed below.

[2] = tested on: human PTEN; test: PTEN expression in HeLa cells, ssRNAs vs siRNAs (Example 62); format: cell-based
Outline: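 HeLa cells treated with antisense strands either as single-stranded RNAs or duplexed with a common sense strand. PTEN mRNA levels normalized; IC50 from linear regression of normalized mRNA against log concentration.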

[3] = Modified ssRNA 5′-phosphate serum stability assay (Example 60); format: in vitro ADME; conditions: full length ssRNA with 5′-terminal phosphate; 10 μM in 95% fresh mouse serum, 37° C., LC/MS
Description: A serum stability assay is useful for evaluating the stability of oligomeric compounds in the presences of nucleases and other enzymes found in serum. For example, the stability of a 5′-terminal phosphate group of an oligomeric compound can be evaluated by assessing the ability of the 5′-terminal phosphate group to remain attached to the oligomeric compound in the presence of serum. Accordingly, a serum stability assay was employed to evaluate the stability of modified ssRNAs having a 5′-terminal phosphate group.
Various modified ssRNAs, shown below, having a 5′-terminal phosphate group (10 μM) were dissolved in 95% of fresh mouse serum and incubated at 37° C. Aliquots of serum (100 μL) were removed after 0, 1, 3, 6 or 24 hours of incubation times. The serum samples were immediately quenched and snap frozen. The samples were extracted by the strong anion exchange (SAX) and octadecylsilyl (C-18) columns. For each incubation time, the amount of full length modified ssRNA having a 5′-terminal phosphate group was determined by LC/MS, and the half-life of the full length modified ssRNA having a 5′ terminal phosphate group was calculated. The results are expressed as half-time (T1/2) in the table below.

[4] = tested on: PTEN; test: PTEN mRNA reduction in HeLa cells, dose response (Example 59); format: cell-based, human; conditions: percent inhibition of PTEN mRNA, real-time PCR normalized to RIBOGREEN, 0.20-50 nM
Protocol: When cells reached 65-75% confluency, they are treated with one or more oligomeric compounds. The oligomeric compound is mixed with LIPOFECTIN™ Invitrogen Life Technologies, Carlsbad, Calif.) in Opti-MEM™-1 reduced serum medium (Invitrogen Life Technologies, Carlsbad, Calif.) to achieve the desired concentration of the oligomeric compound(s) and a LIPOFECTIN™ concentration of 2.5 or 3 μg/mL per 100 nM oligomeric compound(s). This transfection mixture is incubated at room temperature for approximately 0.5 hours. For cells grown in 96-well plates, wells are washed once with 100 μL OPTI-MEM™-1 and then treated with 130 μL of the transfection mixture. Cells grown in 24-well plates or other standard tissue culture plates are treated similarly, using appropriate volumes of medium and oligomeric compound(s). […]
Quantitation of target mRNA levels is accomplished by real-time quantitative PCR using the ABI PRISM™ 7600, 7700, or 7900 Sequence Detection System (PE-Applied Biosystems, Foster City, Calif.) according to manufacturer's instructions. This is a closed-tube, non-gel-based, fluorescence detection system which allows high-throughput quantitation of polymerase chain reaction (PCR) products in real-time. As opposed to standard PCR in which amplification products are quantitated after the PCR is completed, products in real-time quantitative PCR are quantitated as they accumulate. […]

For “P-UfUfGfUfCfUfCfUfGfGfUfCfCfUfUfAfCfUfUfAeAe (antisense UUGUCUCUGGUCCUUACUUAA; sugars from the 5' end f19 e2, 5' {P}, backbone not given here) [ISIS 404320, modified ssRNA targeting PTEN]”, the pIC50 [1] was 8.12, the EC50 ([2]; antisense strand duplexed with sense strand ISIS 341401, PTEN mRNA, read-out: EC50 (nM) siRNA) was 0.5 nM and the EC50 ([2]; single stranded antisense compound, PTEN mRNA, read-out: EC50 (nM) ssRNA) was 5 nM. The “T1/2” value [3] was 4 h and the pEC50 [4] was 7.88.
